What was measured:
Assay type in all cases: in vivo
[1] = system: Diabrotica Balteata (Corn Root Worm); test: Diabrotica balteata on maize sprouts, spray; settings: 96 h, application rate 200 ppm, L2 larvae on maize sprouts, 4 days after infestation, read-out: effect in at least one of the two categories (mortality or growth inhibition)
Procedure: Maize sprouts placed onto an agar layer in 24-well microtiter plates were treated with aqueous test solutions prepared from 10′000 ppm DMSO stock solutions by spraying. After drying, the plates were infested with L2 larvae (6 to 10 per well). The samples were assessed for mortality and growth inhibition in comparison to untreated samples 4 days after infestation.
(§1) The following compounds gave an effect of at least 80% in at least one of the two categories (mortality or growth inhibition) at an application rate of 200 ppm: […]

[2] = system: Euschistus heros (Neotropical Brown Stink Bug); test: Euschistus heros on soybean leaves, spray; settings: 120 h, application rate 200 ppm, N2 nymphs on soybean leaves, 5 days after infestation, read-out: effect in at least one of the two categories (mortality or growth inhibition)
Procedure: Soybean leaves on agar in 24-well microtiter plates were sprayed with aqueous test solutions prepared from 10′000 ppm DMSO stock solutions. After drying the leaves were infested with N2 nymphs. The samples were assessed for mortality and growth inhibition in comparison to untreated samples 5 days after infestation.
as §1

[3] = system: Plutella xylostella (Diamond Back Moth); test: Plutella xylostella on artificial diet; settings: 120 h, application rate 200 ppm, L2 larvae on artificial diet, 5 days after infestation, read-out: effect in at least one of the two categories (mortality or growth inhibition)
Procedure: 24-well microtiter plates with artificial diet were treated with aqueous test solutions prepared from 10′000 ppm DMSO stock solutions by pipetting. After drying, the plates were infested with L2 larvae (10 to 15 per well). The samples were assessed for mortality and growth inhibition in comparison to untreated samples 5 days after infestation.
as §1

[4] = system: Spodoptera littoralis (Egyptian Cotton Leaf Worm); test: Spodoptera littoralis on cotton leaf discs, spray; settings: foliar, 72 h, application rate 200 ppm, L1 larvae on cotton leaf discs, 3 days after infestation
Procedure: Cotton leaf discs were placed onto agar in 24-well microtiter plates and sprayed with aqueous test solutions prepared from 10′000 ppm DMSO stock solutions. After drying the leaf discs were infested with five L1 larvae. The samples were assessed for mortality, anti-feeding effect, and growth inhibition in comparison to untreated samples 3 days after infestation. Control of Spodoptera littoralis by a test sample is given when at least one of the categories mortality, anti-feedant effect, and growth inhibition is higher than the untreated sample.

[5] = system: Aedes aegypti (Yellow Fever Mosquito); test: Aedes aegypti adult contact test on dried deposits; settings: application rate 200 ppm in ethanol, adult females, after 48 h and/or 24 h
Procedure: Test solutions, at an application rate of 200 ppm in ethanol, were applied to 12 well tissue culture plates. Once the deposits were dry, five, two to five day old adult female Aedes aegypti were added to each well, and sustained with a 10% sucrose solution in a cotton wool plug. Assessment of knockdown was made one hour after introduction, and mortality was assessed at 24 and 48 hours after introduction.
The following compounds gave at least 80% control of Aedes aegypti after 48 h and/or 24 h: […]

[6] = system: Bemisia tabaci (Cotton White Fly); test: Bemisia tabaci feeding/contact activity on cotton leaf discs; settings: foliar, 144 h, application rate 200 ppm, adult white flies on cotton leaf discs, 6 days after incubation
Procedure: Feeding/contact activity Cotton leaf discs were placed on agar in 24-well microtiter plates and sprayed with aqueous test solutions prepared from 10′000 ppm DMSO stock solutions. After drying the leaf discs were infested with adult white flies. The samples were checked for mortality 6 days after incubation.

[7] = system: Myzus persicae (Green Peach Aphid); test: Myzus persicae feeding/contact activity on sunflower leaf discs; settings: foliar, 144 h, application rate 200 ppm, aphid population of mixed ages on sunflower leaf discs, 6 days after infestation
Procedure: Feeding/Contact activity Sunflower leaf discs were placed onto agar in a 24-well microtiter plate and sprayed with aqueous test solutions prepared from 10′000 ppm DMSO stock solutions. After drying, the leaf discs were infested with an aphid population of mixed ages. The samples were assessed for mortality 6 days after infestation.

[8] = system: Spodoptera littoralis (Egyptian Cotton Leaf Worm); test: Spodoptera littoralis, uptake by lettuce roots from agar; settings: 144 h, test rate 12.5 ppm, compound absorbed by lettuce roots, 6 days after infestation, read-out: effect in at least one of the three categories (mortality, anti-feeding, or growth inhibition)
From the text: Test compounds were applied by pipette from 10′000 ppm DMSO stock solutions into 24-well plates and mixed with agar. Lettuce seeds were placed onto the agar and the multi well plate was closed by another plate which contained also agar. After 7 days the compound was absorbed by the roots and the lettuce grew into the lid plate. The lettuce leaves were then cut off into the lid plate. Spodoptera eggs were pipetted through a plastic stencil onto a humid gel blotting paper and the lid plate was closed with it. The samples were assessed for mortality, anti-feedant effect and growth inhibition in comparison to untreated samples 6 days after infestation.
The following compounds gave an effect of at least 80% in at least one of the three categories (mortality, anti-feeding, or growth inhibition) at a test rate of 12.5 ppm: A3, A4, A5, A6, A8, A10, B3, B4, B5 and C2.

CCS(=O)(=O)c1c(-c2nc3cc(C(F)(F)F)cnc3n2C)sc2cc(C(F)(F)C(F)(F)F)ccc12 [Compound A12]
≥ 80%: percent effect (mortality or growth inhibition) at 200 ppm [1] | percent effect (mortality or growth inhibition) at 200 ppm [2] | percent effect (mortality or growth inhibition) at 200 ppm [3] | percent control (mortality, anti-feedant effect or growth inhibition) at 200 ppm [4] | pest or weed control at 200 ppm [5]

CCS(=O)(=O)c1c(-c2nc3cc(C(F)(F)F)cnc3n2C)sc2cc(-n3ccc(C(F)(F)F)n3)ccc12 [Compound A9, 2-[3-ethylsulfonyl-6-[3-(trifluoromethyl)pyrazol-1-yl]benzothiophen-2-yl]-3-methyl-6-(trifluoromethyl)imidazo[4,5-b]pyridine]
≥ 80%: percent effect (mortality or growth inhibition) at 200 ppm [1] | percent effect (mortality or growth inhibition) at 200 ppm [3] | percent control (mortality, anti-feedant effect or growth inhibition) at 200 ppm [4]

CCS(=O)(=O)c1c(-c2nc3cc(C(F)(F)F)cnc3n2C)sc2cc(C(F)(F)F)ccc12 [Compound A6]
≥ 80%: mortality at 200 ppm [6] | percent effect (mortality or growth inhibition) at 200 ppm [1] | percent effect (mortality or growth inhibition) at 200 ppm [2] | mortality at 200 ppm [7] | percent effect (mortality or growth inhibition) at 200 ppm [3] | percent control (mortality, anti-feedant effect or growth inhibition) at 200 ppm [4] | percent effect (mortality, anti-feeding or growth inhibition) at 12.5 ppm [8] | pest or weed control at 200 ppm [5]

CCSc1c(-c2nc3cc(C(F)(F)F)ccc3n2C)sc2cc(C(F)(F)F)ccc12 [Compound C1]
≥ 80%: percent effect (mortality or growth inhibition) at 200 ppm [1] | percent effect (mortality or growth inhibition) at 200 ppm [3] | percent control (mortality, anti-feedant effect or growth inhibition) at 200 ppm [4]

CCS(=O)(=O)c1c(-c2nc3cnc(C(F)(F)F)cc3n2C)sc2ccccc12 [Compound B2, 2-(3-ethylsulfonylbenzothiophen-2-yl)-1-methyl-6-(trifluoromethyl)imidazo[4,5-c]pyridine]
≥ 80%: percent effect (mortality or growth inhibition) at 200 ppm [1] | percent effect (mortality or growth inhibition) at 200 ppm [2] | mortality at 200 ppm [7] | percent effect (mortality or growth inhibition) at 200 ppm [3] | percent control (mortality, anti-feedant effect or growth inhibition) at 200 ppm [4]

CCS(=O)(=O)c1c(-c2nc3cc(C(F)(F)F)cnc3n2C)sc2cc(Br)ccc12 [Compound A8, 2-(6-bromo-3-ethylsulfonyl-benzothiophen-2-yl)-3-methyl-6-(trifluoromethyl)imidazo[4,5-b]pyridine]
≥ 80%: mortality at 200 ppm [6] | percent effect (mortality or growth inhibition) at 200 ppm [1] | percent effect (mortality or growth inhibition) at 200 ppm [2] | mortality at 200 ppm [7] | percent effect (mortality or growth inhibition) at 200 ppm [3] | percent control (mortality, anti-feedant effect or growth inhibition) at 200 ppm [4] | percent effect (mortality, anti-feeding or growth inhibition) at 12.5 ppm [8] | pest or weed control at 200 ppm [5]

CCSc1c(-c2nc3cc(C(F)(F)F)cnc3n2C)sc2cc(Br)ccc12 [Compound A7, 2-(6-bromo-3-ethylsulfanyl-benzothiophen-2-yl)-3-methyl-6-(trifluoromethyl)imidazo[4,5-b]pyridine]
≥ 80%: percent effect (mortality or growth inhibition) at 200 ppm [1] | percent effect (mortality or growth inhibition) at 200 ppm [2] | percent effect (mortality or growth inhibition) at 200 ppm [3] | percent control (mortality, anti-feedant effect or growth inhibition) at 200 ppm [4] | pest or weed control at 200 ppm [5]

CCSc1c(-c2nc3cc(C(F)(F)F)cnc3n2C)sc2ccccc12 [Compound A1, 2-(3-ethylsulfanylbenzothiophen-2-yl)-3-methyl-6-(trifluoromethyl)imidazo[4,5-b]pyridine]
≥ 80%: percent effect (mortality or growth inhibition) at 200 ppm [1] | mortality at 200 ppm [7]

CCS(=O)(=O)c1c(-c2nc3cc(C(F)(F)F)ccc3n2C)sc2cc(C(F)(F)F)ccc12 [Compound C2]
≥ 80%: mortality at 200 ppm [6] | percent effect (mortality or growth inhibition) at 200 ppm [1] | percent effect (mortality or growth inhibition) at 200 ppm [3] | percent control (mortality, anti-feedant effect or growth inhibition) at 200 ppm [4] | percent effect (mortality, anti-feeding or growth inhibition) at 12.5 ppm [8] | pest or weed control at 200 ppm [5]

CCS(=O)(=O)c1c(-c2nc3cc(C(F)(F)F)cnc3n2C)sc2cc(C3CC3)ccc12 [Compound A11, 2-(6-cyclopropyl-3-ethylsulfonyl-benzothiophen-2-yl)-3-methyl-6-(trifluoromethyl)imidazo[4,5-b]pyridine]
≥ 80%: percent effect (mortality or growth inhibition) at 200 ppm [1] | percent effect (mortality or growth inhibition) at 200 ppm [2] | mortality at 200 ppm [7] | percent effect (mortality or growth inhibition) at 200 ppm [3] | percent control (mortality, anti-feedant effect or growth inhibition) at 200 ppm [4]

CCS(=O)(=O)c1c(-c2nc3cc(C(F)(F)F)cnc3n2C)sc2ccccc12 [Compound A2, 2-(3-ethylsulfonylbenzothiophen-2-yl)-3-methyl-6-(trifluoromethyl)imidazo [4,5-b] pyridine]
≥ 80%: percent effect (mortality or growth inhibition) at 200 ppm [1] | percent effect (mortality or growth inhibition) at 200 ppm [2] | mortality at 200 ppm [7] | percent effect (mortality or growth inhibition) at 200 ppm [3] | percent control (mortality, anti-feedant effect or growth inhibition) at 200 ppm [4]

CCSc1c(-c2nc3cc(C(F)(F)F)cnc3n2C)sc2cc(C(F)(F)F)ccc12 [Compound A5]
≥ 80%: percent effect (mortality or growth inhibition) at 200 ppm [1] | percent effect (mortality or growth inhibition) at 200 ppm [2] | percent effect (mortality or growth inhibition) at 200 ppm [3] | percent control (mortality, anti-feedant effect or growth inhibition) at 200 ppm [4] | percent effect (mortality, anti-feeding or growth inhibition) at 12.5 ppm [8] | pest or weed control at 200 ppm [5]

CCS(=O)(=O)c1c(-c2nc3cc(C(F)(F)F)cnc3n2C)sc2cc(SC(F)(F)F)ccc12 [Compound A10, 2-[3-ethylsulfonyl-6-(trifluoromethylsulfanyl)benzothiophen-2-yl]-3-methyl-6-(trifluoromethyl)imidazo[4,5-b]pyridine]
≥ 80%: percent effect (mortality or growth inhibition) at 200 ppm [1] | percent effect (mortality or growth inhibition) at 200 ppm [2] | mortality at 200 ppm [7] | percent effect (mortality or growth inhibition) at 200 ppm [3] | percent control (mortality, anti-feedant effect or growth inhibition) at 200 ppm [4] | percent effect (mortality, anti-feeding or growth inhibition) at 12.5 ppm [8] | pest or weed control at 200 ppm [5]

Reference: patent US10494368B2, “Pesticidally active tetracyclic derivatives with sulfur containing substituents” (Syngenta Participations AG, priority 2015, dated 2019)
